Assay results as given in ChEMBL document CHEMBL1142360 (J Med Chem, 2008).

Experiments:
PC-3 [1] = assay: Antiproliferative activity against human PC3 cells at 10 uM after 5 days; type: functional
PC-3 [2] = assay: Antiproliferative activity against human PC3 cells; type: functional, cell-based
[3] = Partition coefficient, log P of the compound; type: physicochemical; conditions: octanol/water

Row | Compound | Activity (PC-3 [1]) | IC50 (PC-3 [2]) | logP [3]
1 | COc1ccc(C2(c3ccc(C#N)c(C(F)(F)F)c3)NC(=O)N(c3ccc(C#N)c(C(F)(F)F)c3)C2=O)cc1 (configuration not stated) | 76% | 5.6 µM | 5.7
2 | C[C@](O)(CS(=O)(=O)c1ccc(F)cc1)C(=O)Nc1ccc(C#N)c(C(F)(F)F)c1 [(R)-BICALUTAMIDE] | 15% |  | 3.4
3 | CC1(C)NC(=O)N(c2ccc([N+](=O)[O-])c(C(F)(F)F)c2)C1=O [NILUTAMIDE] | 11% |  | 3.2
